Results reported in article PMC10896643 (Journal of medicinal chemistry, 2023).
“Also recorded” adds a separate entry of the source.

Legend:
hA2AAR = hA2AAR (Homo sapiens, UniProt P29274); assay: cAMP functional assay in CHO-A2A cells; settings: 10 μM
hA3AR = target: T1, hA3AR (Homo sapiens, UniProt P0DMS8); assay: cAMP functional assay in CHO-A3 cells; settings: 10 μM
T1 sequence (P0DMS8 1-318): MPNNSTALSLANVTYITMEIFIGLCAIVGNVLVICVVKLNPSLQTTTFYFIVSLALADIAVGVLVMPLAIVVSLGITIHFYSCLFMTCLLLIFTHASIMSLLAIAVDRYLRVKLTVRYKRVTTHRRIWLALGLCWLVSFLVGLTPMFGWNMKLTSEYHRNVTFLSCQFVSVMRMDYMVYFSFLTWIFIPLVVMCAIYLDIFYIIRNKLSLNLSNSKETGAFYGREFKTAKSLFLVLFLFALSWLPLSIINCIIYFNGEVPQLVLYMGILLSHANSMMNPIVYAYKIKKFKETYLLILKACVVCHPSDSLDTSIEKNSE

CYP3A4 = CYP3A4 (Homo sapiens, UniProt P08684); assay: CYP isoform inhibition; assay type: in vitro ADME
4T1-Luc tumors = assay: In vivo antitumor activity in 4T1-Luc tumor-bearing mice; settings: 10 mg/kg i.p., alone or with anti-PD-L1
hERG K+ channels = hERG K+ channels (Homo sapiens, UniProt Q12809); assay: hERG K+ channel inhibition; assay type: in vitro ADME
CYP1A2 = target: T2, CYP1A2 (Homo sapiens, UniProt P05177); assay: CYP isoform inhibition; assay type: in vitro ADME
T2 sequence (P05177 1-516): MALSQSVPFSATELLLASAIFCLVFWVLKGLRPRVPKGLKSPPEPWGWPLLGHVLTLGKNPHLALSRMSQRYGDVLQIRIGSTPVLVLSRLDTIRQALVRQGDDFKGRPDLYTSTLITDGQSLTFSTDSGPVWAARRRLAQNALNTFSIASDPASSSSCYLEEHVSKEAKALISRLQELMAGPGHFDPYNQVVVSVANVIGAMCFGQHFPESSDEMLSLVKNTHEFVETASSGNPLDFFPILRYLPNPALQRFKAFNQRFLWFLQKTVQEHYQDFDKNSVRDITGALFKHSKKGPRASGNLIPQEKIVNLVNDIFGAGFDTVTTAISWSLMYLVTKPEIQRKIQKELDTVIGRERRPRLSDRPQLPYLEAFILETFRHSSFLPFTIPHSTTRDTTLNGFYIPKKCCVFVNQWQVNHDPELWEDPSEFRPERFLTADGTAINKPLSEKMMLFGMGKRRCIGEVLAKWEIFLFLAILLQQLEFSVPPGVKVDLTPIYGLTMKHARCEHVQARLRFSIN

CYP2C9 = CYP2C9 (Homo sapiens, UniProt P11712); assay: CYP isoform inhibition; assay type: in vitro ADME
CYP2D6 = CYP2D6 (Homo sapiens, UniProt P10635); assay: CYP isoform inhibition; assay type: in vitro ADME
CYP2C19 = CYP2C19 (Homo sapiens, UniProt P33261); assay: CYP isoform inhibition; assay type: in vitro ADME
CYP2C19, sequence (P33261 whole entry, species assumed, canonical isoform): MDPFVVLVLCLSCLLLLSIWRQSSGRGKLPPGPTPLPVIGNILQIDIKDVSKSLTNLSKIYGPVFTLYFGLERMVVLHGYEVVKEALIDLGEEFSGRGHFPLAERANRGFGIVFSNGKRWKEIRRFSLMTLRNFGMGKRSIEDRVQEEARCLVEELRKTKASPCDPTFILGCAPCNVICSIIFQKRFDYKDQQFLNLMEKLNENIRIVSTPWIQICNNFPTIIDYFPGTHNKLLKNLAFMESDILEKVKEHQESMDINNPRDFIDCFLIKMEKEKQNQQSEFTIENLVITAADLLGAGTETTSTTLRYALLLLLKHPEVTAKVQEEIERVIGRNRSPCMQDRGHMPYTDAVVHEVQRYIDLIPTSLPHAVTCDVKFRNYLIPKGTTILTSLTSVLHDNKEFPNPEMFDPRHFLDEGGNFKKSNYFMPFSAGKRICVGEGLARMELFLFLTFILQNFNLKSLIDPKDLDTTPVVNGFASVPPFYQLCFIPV

CYP2C9, sequence (P11712 whole entry, species assumed, canonical isoform): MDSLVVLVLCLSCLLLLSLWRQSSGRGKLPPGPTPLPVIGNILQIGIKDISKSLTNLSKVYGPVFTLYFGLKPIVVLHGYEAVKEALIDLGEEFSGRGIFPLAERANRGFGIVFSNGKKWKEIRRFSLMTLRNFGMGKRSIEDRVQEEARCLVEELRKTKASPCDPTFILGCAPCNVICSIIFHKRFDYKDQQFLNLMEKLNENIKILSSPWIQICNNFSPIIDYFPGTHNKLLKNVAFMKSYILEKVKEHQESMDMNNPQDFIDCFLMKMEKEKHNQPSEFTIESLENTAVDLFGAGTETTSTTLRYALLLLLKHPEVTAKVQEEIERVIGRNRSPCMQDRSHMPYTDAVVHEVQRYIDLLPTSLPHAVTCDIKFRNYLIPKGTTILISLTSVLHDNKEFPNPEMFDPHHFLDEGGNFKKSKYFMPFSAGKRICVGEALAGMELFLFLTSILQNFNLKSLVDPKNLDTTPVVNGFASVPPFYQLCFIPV
hA2AAR, sequence (P29274 whole entry): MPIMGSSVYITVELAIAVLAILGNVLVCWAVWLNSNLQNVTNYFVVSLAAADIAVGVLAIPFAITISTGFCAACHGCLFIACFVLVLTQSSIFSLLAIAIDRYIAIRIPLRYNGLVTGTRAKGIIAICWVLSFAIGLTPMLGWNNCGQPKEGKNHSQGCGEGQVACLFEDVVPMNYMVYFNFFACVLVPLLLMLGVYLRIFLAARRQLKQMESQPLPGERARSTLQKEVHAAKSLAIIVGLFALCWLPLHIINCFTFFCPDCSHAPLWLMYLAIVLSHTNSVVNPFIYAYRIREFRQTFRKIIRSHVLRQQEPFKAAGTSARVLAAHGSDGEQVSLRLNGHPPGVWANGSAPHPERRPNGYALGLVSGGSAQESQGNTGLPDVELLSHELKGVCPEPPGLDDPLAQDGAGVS
CYP3A4, sequence (P08684 whole entry, species assumed, canonical isoform): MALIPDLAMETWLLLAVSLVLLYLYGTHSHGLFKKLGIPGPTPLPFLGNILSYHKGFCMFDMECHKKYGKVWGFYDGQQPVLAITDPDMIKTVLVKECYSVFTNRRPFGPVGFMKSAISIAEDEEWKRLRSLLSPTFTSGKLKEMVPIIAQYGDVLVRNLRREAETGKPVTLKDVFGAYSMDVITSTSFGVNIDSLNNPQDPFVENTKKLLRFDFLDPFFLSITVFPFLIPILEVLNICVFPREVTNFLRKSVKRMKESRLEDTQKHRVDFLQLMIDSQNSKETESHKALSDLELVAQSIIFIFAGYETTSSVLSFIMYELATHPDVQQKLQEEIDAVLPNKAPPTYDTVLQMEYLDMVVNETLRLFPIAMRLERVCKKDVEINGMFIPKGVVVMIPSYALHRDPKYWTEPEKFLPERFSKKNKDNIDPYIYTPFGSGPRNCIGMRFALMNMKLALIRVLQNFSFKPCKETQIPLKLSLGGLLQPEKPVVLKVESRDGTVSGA
CYP2D6, sequence (P10635 whole entry, species assumed, canonical isoform): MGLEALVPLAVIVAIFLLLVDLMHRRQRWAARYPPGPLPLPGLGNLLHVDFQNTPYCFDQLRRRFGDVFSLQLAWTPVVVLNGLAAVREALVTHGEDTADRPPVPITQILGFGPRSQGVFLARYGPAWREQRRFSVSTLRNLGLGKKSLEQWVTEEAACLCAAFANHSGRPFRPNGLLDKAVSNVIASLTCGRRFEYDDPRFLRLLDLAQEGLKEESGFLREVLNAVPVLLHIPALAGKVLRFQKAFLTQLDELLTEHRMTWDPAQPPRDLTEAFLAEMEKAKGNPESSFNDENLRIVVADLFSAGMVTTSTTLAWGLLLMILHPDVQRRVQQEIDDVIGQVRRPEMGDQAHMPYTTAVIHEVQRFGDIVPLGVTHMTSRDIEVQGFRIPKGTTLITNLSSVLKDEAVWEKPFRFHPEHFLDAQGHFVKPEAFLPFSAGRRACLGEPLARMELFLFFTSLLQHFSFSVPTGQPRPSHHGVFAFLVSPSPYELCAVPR
hERG K+ channels, sequence (Q12809 whole entry, canonical isoform): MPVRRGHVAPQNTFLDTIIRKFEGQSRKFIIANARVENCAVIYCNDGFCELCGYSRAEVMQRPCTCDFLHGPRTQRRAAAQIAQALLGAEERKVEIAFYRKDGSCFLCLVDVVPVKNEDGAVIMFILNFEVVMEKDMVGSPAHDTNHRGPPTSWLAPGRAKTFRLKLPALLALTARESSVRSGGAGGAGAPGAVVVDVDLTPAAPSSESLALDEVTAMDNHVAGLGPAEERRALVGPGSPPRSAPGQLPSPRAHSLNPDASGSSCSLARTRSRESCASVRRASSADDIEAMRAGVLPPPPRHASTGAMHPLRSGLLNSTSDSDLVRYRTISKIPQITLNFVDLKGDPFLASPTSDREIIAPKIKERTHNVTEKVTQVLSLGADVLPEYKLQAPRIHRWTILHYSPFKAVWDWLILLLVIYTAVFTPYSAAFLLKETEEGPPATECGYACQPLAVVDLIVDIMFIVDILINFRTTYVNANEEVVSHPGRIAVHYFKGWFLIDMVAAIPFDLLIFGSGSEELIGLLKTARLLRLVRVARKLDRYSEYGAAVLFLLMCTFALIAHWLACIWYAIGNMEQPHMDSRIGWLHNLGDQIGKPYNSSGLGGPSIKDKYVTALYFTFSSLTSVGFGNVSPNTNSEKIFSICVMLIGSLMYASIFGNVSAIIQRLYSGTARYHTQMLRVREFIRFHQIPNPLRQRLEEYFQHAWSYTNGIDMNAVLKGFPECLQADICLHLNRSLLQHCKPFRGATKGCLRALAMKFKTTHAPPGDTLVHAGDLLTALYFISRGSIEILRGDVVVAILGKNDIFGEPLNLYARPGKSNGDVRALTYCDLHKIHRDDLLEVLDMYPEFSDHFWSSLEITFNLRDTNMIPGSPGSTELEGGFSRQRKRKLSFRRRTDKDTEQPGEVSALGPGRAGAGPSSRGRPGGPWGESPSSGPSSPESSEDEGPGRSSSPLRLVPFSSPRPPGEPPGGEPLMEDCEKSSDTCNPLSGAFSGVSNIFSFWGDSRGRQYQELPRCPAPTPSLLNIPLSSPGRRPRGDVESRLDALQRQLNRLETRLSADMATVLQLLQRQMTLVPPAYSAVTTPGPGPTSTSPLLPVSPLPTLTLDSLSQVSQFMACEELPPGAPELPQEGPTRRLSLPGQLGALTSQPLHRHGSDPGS

## CCCCC#Cc1nc(N)c2nc(-c3ccco3)n([C@@H]3OC[C@@H](O)[C@H]3O)c2n1 [5a, (2R,3R,4R)-2-(6-Amino-8-(furan-2-yl)-2-(hex-1-yn-1-yl)-9H-purin-9-yl)tetrahydrofuran-3,4-diol]
hA2AAR
  receptor activation / antagonism at hA2AAR: no receptor activation
hA3AR
  hA3AR activation: inhibited hA3AR activation

## CCCCC#Cc1nc(N)c2nc(-c3cccs3)n([C@@H]3OC[C@@H](O)[C@H]3O)c2n1 [5d, (2R,3R,4R)-2-(6-Amino-2-(hex-1-yn-1-yl)-8-(thiophen-2-yl)-9H-purin-9-yl)tetrahydrofuran-3,4-diol]
CYP3A4
  CYP3A4 inhibition: did not significantly inhibit
4T1-Luc tumors
  adverse effects / body weight loss: No adverse effects or body weight loss; also recorded: without any adverse effects and body weight loss
hERG K+ channels
  hERG K+ channel inhibition: did not significantly inhibit
CYP1A2
  CYP1A2 inhibition: did not significantly inhibit
CYP2C9
  CYP2C9 inhibition: did not significantly inhibit
CYP2D6
  CYP2D6 inhibition: did not significantly inhibit
CYP2C19
  CYP2C19 inhibition: did not significantly inhibit
